Assay results reported in article PMC10837484 (Clinical and Translational Science, 2024).

Tests used:
LTA4H [1] = target: T1, LTA4H (Homo sapiens, UniProt P09960); conditions: cited from earlier work
T1 sequence (P09960 1-611): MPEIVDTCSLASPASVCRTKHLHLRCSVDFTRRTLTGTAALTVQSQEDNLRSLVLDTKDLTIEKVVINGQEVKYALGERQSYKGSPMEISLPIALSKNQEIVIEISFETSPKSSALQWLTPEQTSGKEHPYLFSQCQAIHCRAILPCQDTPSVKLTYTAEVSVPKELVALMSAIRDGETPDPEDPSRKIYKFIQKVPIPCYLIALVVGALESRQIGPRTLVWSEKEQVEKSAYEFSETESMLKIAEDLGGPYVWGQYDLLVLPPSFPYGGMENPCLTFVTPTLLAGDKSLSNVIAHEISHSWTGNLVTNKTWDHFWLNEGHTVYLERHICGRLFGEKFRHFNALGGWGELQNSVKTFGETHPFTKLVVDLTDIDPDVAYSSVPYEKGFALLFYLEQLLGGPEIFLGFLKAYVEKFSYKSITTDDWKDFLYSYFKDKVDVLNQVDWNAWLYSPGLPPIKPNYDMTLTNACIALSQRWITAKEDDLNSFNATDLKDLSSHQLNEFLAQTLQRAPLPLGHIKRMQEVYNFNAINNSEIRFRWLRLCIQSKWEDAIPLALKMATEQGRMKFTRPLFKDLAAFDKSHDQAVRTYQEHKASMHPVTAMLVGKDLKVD

LTA4H [2] = conditions: cited from earlier work
LTA4H [3] = target: T1, LTA4H; conditions: patients with asthma; cited from earlier work
in vivo = conditions: male, Wistar, rat, 3 mg/kg
[4] = Dog PK/PD study: LYS006 in blood and plasma; format: in vivo, male beagle dogs
[5] = cited from earlier work
[6] = First-in-human study: LYS006 concentrations in plasma and blood; format: in vivo; conditions: for concentration at 24 h: blood level, 24 h timepoint
[7] = First-in-human study: safety and tolerability; format: in vivo
[8] = cited from earlier work; remark: listed apart in the source
[9] = 0.5 mg/kg p.o. q.d., after fifth dose
[10] = SAD part, LYS006 treated participants

In the case of O=C(O)CCCN1CCC[C@H]1COc1ccc(Oc2ccc(Cl)cc2)cc1 [DG‐051], the “LTB4 reduction in ex vivo stimulated blood” value (LTA4H [1]; after 7 days of once daily treatment) is given as “up to 70%” and the “in vitro potency relative to other clinical LTA4H inhibitors” value (LTA4H [2]) is given as “lowest potency”.

For CC(=O)NC1C[C@H]2CC[C@@H](C1)N2Cc1ccc(Oc2nc3ncccc3s2)cc1 (stereo partly shown) [JNJ‐40929837], the “reduction in sputum LTB4” value (LTA4H [3]) is given as 92%, the “reduction of LTB4 levels” value (LTA4H [1]; over a 24 h period at doses of 100 mg) is given as “greater than 95%” and the “potency in in vitro cellular assays” value (LTA4H [2]) is given as “highly potent”.

For N[C@@H](CC(=O)O)Cn1nnc(-c2ccc(Oc3ncc(Cl)cc3F)cc2)n1 [LYS006], the concentration at 4 h (in vivo) was over 1000 ng/mL, the peak blood concentration [4, 9] was 55 ng/mL and the peak plasma concentration [4, 9] was 5.5 ng/mL. It also gave a peak blood level ([4]; 3 mg/kg p.o., first dose, 1 h) of 71 ng/mL, a peak plasma level ([4]; 3 mg/kg p.o., first dose, 1 h) of 36 ng/mL and a concentration at 24 h ([4]; male, beagle, in vivo, po, 0.5 mg/kg, plasma Ctrough, 0.5 mg/kg p.o., first dose) of about 3 ng/mL. The “time to maximum plasma concentration (Tmax)” value ([5]; clinical PK) was 1 to 2 h, the “parent compound excreted into the urine” value ([5]; human) was 90% and the trough blood level ([6]; MAD, 15 mg q.d.) was ~ 35 ng/mL. For the same molecule, the trough plasma level ([6]; MAD, 15 mg q.d.) was ~ 2 ng/mL, the “blood exposure after end-of-treatment” value ([6]; MAD, after last dose on day 12) was 30 to 40 ng/mL and the “plasma level after end-of-treatment” value ([6]; MAD, after last dose on day 12) was 1 to 2 ng/mL. It also gave a concentration at 24 h ([6]; both, human, in vivo, 5 mg, SAD) of 29.4 ng/mL, a concentration at 24 h ([6]; both, human, in vivo, 70 mg, SAD) of 37.1 ng/mL and a concentration at 12 h ([6]; both, human, in vivo, blood concentration, SAD, 12 h after administration) of 30 to 50 ng/mL. The “AE severity: Mild” value ([7]; FE cohorts, 10 mg, N = 12) was 8 (66.6) n (%), the “AE severity: Moderate” value ([7]; FE cohorts, 10 mg, N = 12) was 0 (0) n (%) and the “AE severity: Severe” value ([7]; FE cohorts, 10 mg, N = 12) was 0 (0) n (%). For the same molecule, the “AEs leading to discontinuation” value ([7]; FE cohorts, 10 mg, N = 12) was 0 (0) n (%), the “Abdominal discomfort or pain” value ([7]; FE cohorts, 10 mg, N = 12) was 2 (16.7) n (%) and the Amylase increase ([7]; FE cohorts, 10 mg, N = 12) was 0 (0) n (%). For the same molecule, the Back pain ([7]; FE cohorts, 10 mg, N = 12) was 0 (0) n (%), the “Blood CPK elevation” value ([7]; FE cohorts, 10 mg, N = 12) was 0 (0) n (%) and the Breast pain ([7]; FE cohorts, 10 mg, N = 12) was 0 (0) n (%). For the same molecule, the Deaths ([7]; FE cohorts, 10 mg, N = 12) was 0 (0) n (%), the Diarrhea ([7]; FE cohorts, 10 mg, N = 12) was 0 (0) n (%) and the Dizziness ([7]; FE cohorts, 10 mg, N = 12) was 0 (0) n (%). For the same molecule, the Dry skin ([7]; FE cohorts, 10 mg, N = 12) was 2 (16.7) n (%), the Feeling cold ([7]; FE cohorts, 10 mg, N = 12) was 2 (16.7) n (%) and the Headache ([7]; FE cohorts, 10 mg, N = 12) was 1 (8.3) n (%). For the same molecule, the Lipase elevation ([7]; FE cohorts, 10 mg, N = 12) was 0 (0) n (%), the Nausea ([7]; FE cohorts, 10 mg, N = 12) was 0 (0) n (%) and the Pruritus ([7]; FE cohorts, 10 mg, N = 12) was 0 (0) n (%). The SAEs ([7]; FE cohorts, 10 mg, N = 12) was 0 (0) n (%), the “Study drug-related AEs” value ([7]; FE cohorts, 10 mg, N = 12) was 0 (0) n (%) and the Viral respiratory infection ([7]; FE cohorts, 10 mg, N = 12) was 3 (25) n (%). It also gave a Feeling cold ([7]; FE part, 10 mg) of 16.7%, an abdominal pain ([7]; FE part, 10 mg) of 16.7% and a dry skin ([7]; FE part, 10 mg) of 16.7%. For the same molecule, the “viral upper respiratory tract infection” value ([7]; FE part, 10 mg) was 25.0%, the “participants with at least one AE” value ([7]; FE part, 10 mg fasted or fed, 12 patients) was 66.7% and the “AE severity: Mild” value ([7]; MAD cohorts, all doses, N = 30) was 22 (73.3) n (%). For the same molecule, the “AE severity: Moderate” value ([7]; MAD cohorts, all doses, N = 30) was 4 (13.3) n (%), the “AE severity: Severe” value ([7]; MAD cohorts, all doses, N = 30) was 4 (13.3) n (%) and the “AEs leading to discontinuation” value ([7]; MAD cohorts, all doses, N = 30) was 0 (0) n (%). The “Abdominal discomfort or pain” value ([7]; MAD cohorts, all doses, N = 30) was 2 (6.7) n (%), the Amylase increase ([7]; MAD cohorts, all doses, N = 30) was 2 (6.7) n (%) and the Back pain ([7]; MAD cohorts, all doses, N = 30) was 2 (6.7) n (%). The “Blood CPK elevation” value ([7]; MAD cohorts, all doses, N = 30) was 5 (16.7) n (%), the Breast pain ([7]; MAD cohorts, all doses, N = 30) was 0 (0) n (%) and the Deaths ([7]; MAD cohorts, all doses, N = 30) was 0 (0) n (%). For the same molecule, the Diarrhea ([7]; MAD cohorts, all doses, N = 30) was 1 (3.3) n (%), the Dizziness ([7]; MAD cohorts, all doses, N = 30) was 2 (6.7) n (%) and the Dry skin ([7]; MAD cohorts, all doses, N = 30) was 0 (0) n (%). For the same molecule, the Feeling cold ([7]; MAD cohorts, all doses, N = 30) was 0 (0) n (%), the Headache ([7]; MAD cohorts, all doses, N = 30) was 8 (26.7) n (%) and the Lipase elevation ([7]; MAD cohorts, all doses, N = 30) was 3 (10) n (%). For the same molecule, the Nausea ([7]; MAD cohorts, all doses, N = 30) was 2 (6.7) n (%), the Pruritus ([7]; MAD cohorts, all doses, N = 30) was 0 (0) n (%) and the SAEs ([7]; MAD cohorts, all doses, N = 30) was 0 (0) n (%). For the same molecule, the “Study drug-related AEs” value ([7]; MAD cohorts, all doses, N = 30) was 5 (16.7) n (%), the “Subjects with at least one AE” value ([7]; MAD cohorts, all doses, N = 30) was 23 (76.7) n (%) and the Viral respiratory infection ([7]; MAD cohorts, all doses, N = 30) was 2 (6.7) n (%). The “participants with AEs” value ([7]; MAD part, 30 LYS006-treated participants) was 76.7%, the “AEs of severe intensity (grade 3)” value ([7]; MAD part, LYS006-treated participants) was 13.3% and the Headache ([7]; MAD part, LYS006 group) was 26.7%. For the same molecule, the Lipase elevation ([7]; MAD part, LYS006 group) was 10%, the “creatine phosphokinase (CPK) elevation” value ([7]; MAD part, LYS006 group) was 16.7% and the “number of AEs of severe intensity related to CPK elevations” value ([7]; MAD, LYS006 group, transient) was “two”. For the same molecule, the “number of lipase elevations of severe intensity (grade 3)” value ([7]; MAD, LYS006 group, transient) was “Two”, the “AE severity: Mild” value ([7]; SAD cohorts, all doses, N = 51) was 18 (35.3) n (%) and the “AE severity: Moderate” value ([7]; SAD cohorts, all doses, N = 51) was 2 (3.9) n (%). The “AE severity: Severe” value ([7]; SAD cohorts, all doses, N = 51) was 1 (2) n (%), the “AEs leading to discontinuation” value ([7]; SAD cohorts, all doses, N = 51) was 0 (0) n (%) and the “Abdominal discomfort or pain” value ([7]; SAD cohorts, all doses, N = 51) was 4 (7.8) n (%). For the same molecule, the Amylase increase ([7]; SAD cohorts, all doses, N = 51) was 0 (0) n (%), the Back pain ([7]; SAD cohorts, all doses, N = 51) was 1 (2) n (%) and the “Blood CPK elevation” value ([7]; SAD cohorts, all doses, N = 51) was 0 (0) n (%). The Breast pain ([7]; SAD cohorts, all doses, N = 51) was 0 (0) n (%), the Deaths ([7]; SAD cohorts, all doses, N = 51) was 0 (0) n (%) and the Diarrhea ([7]; SAD cohorts, all doses, N = 51) was 2 (3.9) n (%). The Dizziness ([7]; SAD cohorts, all doses, N = 51) was 1 (2) n (%), the Dry skin ([7]; SAD cohorts, all doses, N = 51) was 0 (0) n (%) and the Feeling cold ([7]; SAD cohorts, all doses, N = 51) was 0 (0) n (%). For the same molecule, the Headache ([7]; SAD cohorts, all doses, N = 51) was 3 (5.9) n (%), the Lipase elevation ([7]; SAD cohorts, all doses, N = 51) was 2 (3.9) n (%) and the Nausea ([7]; SAD cohorts, all doses, N = 51) was 0 (0) n (%). The Pruritus ([7]; SAD cohorts, all doses, N = 51) was 2 (3.9) n (%), the SAEs ([7]; SAD cohorts, all doses, N = 51) was 0 (0) n (%) and the “Study drug-related AEs” value ([7]; SAD cohorts, all doses, N = 51) was 4 (7.8) n (%). For the same molecule, the “Subjects with at least one AE” value ([7]; SAD cohorts, all doses, N = 51) was 19 (37.3) n (%), the Viral respiratory infection ([7]; SAD cohorts, all doses, N = 51) was 0 (0) n (%) and the “participants with AEs” value ([7]; SAD part, 51 LYS006 treated participants) was 37.3%. For the same molecule, the “Abdominal discomfort or pain” value [7, 10] was 7.8%, the Diarrhea [7, 10] was 3.9% and the Headache [7, 10] was 5.9%. The tolerability ([7]; SAD, FE and MAD parts, all study participants) was “well‐tolerated”, the dose-limiting toxicity ([7]; healthy participants, up to 80 mg b.i.d.) was “No dose‐limiting toxicity” and the “lipase increase, only AE of severe intensity (grade 3) in SAD” value ([7]; one participant, single dose 5 mg, day 8 after dosing, no clinical sign) was at least 2 × ULN.

For O=C(O)c1ccc(CN2C[C@@H]3C[C@H]2CN3Cc2ccc(Oc3ccc(-c4ncco4)cc3)cc2)cc1 [acebilustat], the “maximum PD effect, reduction of LTB4 at peak in ex vivo stimulated blood” value (LTA4H [1]; highest tested dose 200 mg q.d.) is listed as 89%.

For CC(c1cc2ccccc2s1)N(O)C(N)=O (stereo not shown) [zileuton], the “effect on liver transaminases” value [8] is given as “elevates liver transaminases”.
